In brackets after ≈: the same amount, converted by molar mass.
Columns and labels:
Mycobacterium avium = assay: Antimycobacterial activity against Mycobacterium avium CIP 103317; type: functional
Mycobacterium gordonae = assay: Antimycobacterial activity against Mycobacterium gordonae CIP 6427; type: functional
Vero [1] = assay: In vitro cytotoxicity against VERO cells.; type: functional, Chlorocebus sabaeus
[2] = system: Mycobacterium tuberculosis; assay: Antimycobacterial activity against Mycobacterium tuberculosis CIP 103471; type: functional
[3] = system: Mycolicibacterium smegmatis; assay: Antibacterial activity against Mycobacterium smegmatis CIP 103599.; type: functional
Mycobacterium marinum [4] = assay: Compound was tested for anti-mycobacterial activity against Mycobacterium marinum CIP 6423.; type: functional
Mycobacterium marinum [5] = assay: Antimycobacterial activity against Mycobacterium marinum CIP 6423; type: functional
[6] = system: Mycobacterium tuberculosis; assay: Compound was tested for anti-mycobacterial activity against Mycobacterium tuberculosis CIP 103471; type: functional
Vero [7] = assay: Compound was tested for cytotoxicity against VERO cells; type: functional, Chlorocebus sabaeus

| Structure (SMILES) | MIC (Mycobacterium avium) [µg/mL] | MIC (Mycobacterium gordonae) [µg/mL] | MTD50 (Vero [1]) [µg/mL] | MIC [2] [µg/mL] | MIC [3] [µg/mL] | MIC (Mycobacterium marinum [4]) [µg/mL] | MIC (Mycobacterium marinum [5]) [µg/mL] | MIC [6] [µg/mL] | MTD50 (Vero [7]) [µg/mL] |
| --- | --- | --- | --- | --- | --- | --- | --- | --- | --- |
| O=[N+]([O-])c1c[nH]cc1-c1cccc(Cl)c1Cl | > 16 | > 16 | 1 | 16 (≈ 62.2 µM) | > 16 | > 16 | – | – | – |
| OCc1cn(Cc2ccccc2Cl)cc1-c1ccc(Cl)cc1 | > 16 | > 16 | 15 | 8 (≈ 24.1 µM) | > 16 | – | > 16 | – | – |
| CCOC(=O)c1cn(Cc2ccccc2)cc1-c1ccc(OC)cc1 | > 16 | > 16 | 8 | 8 (≈ 23.9 µM) | > 16 | – | > 16 | – | – |
| O=[N+]([O-])c1c[nH]cc1-c1ccccc1Cl | > 16 | > 16 | – | > 16 | > 16 | – | > 16 | – | – |
| O=[N+]([O-])c1c[nH]cc1-c1ccc(Cl)cc1 | > 16 | > 16 | – | > 16 | > 16 | – | > 16 | – | – |
| NC(=O)c1c[nH]cc1-c1ccc(Cl)cc1 | > 16 | > 16 | 16 | > 16 | > 16 | – | > 16 | – | – |
| COc1ccc(-c2cn(C)cc2[N+](=O)[O-])c(Cl)c1 | > 16 | > 16 | 2 | > 16 | > 16 | – | > 16 | – | – |
| CCOC(=O)c1cn(C)cc1-c1ccc(OC)cc1 | > 16 | > 16 | – | – | > 16 | – | > 16 | > 16 | 4 |
| O=[N+]([O-])c1c[nH]cc1-c1ccc(Cl)cc1Cl | 16 (≈ 62.2 µM) | > 16 | 1 | 1 (≈ 3.89 µM) | > 16 | – | > 16 | – | – |
| O=[N+]([O-])c1c[nH]cc1-c1cccc(Cl)c1 | > 16 | > 16 | – | > 16 | > 16 | – | > 16 | – | – |
| NNC(=O)c1c[nH]cc1-c1ccc(Cl)cc1 | > 16 | > 16 | 16 | > 16 | > 16 | – | > 16 | – | – |
| CCOC(=O)c1c[nH]cc1-c1ccc(Cl)cc1Cl | > 16 | > 16 | 2 | > 16 | > 16 | – | > 16 | – | – |
| O=C(O)c1cn(Cc2ccc(Cl)cc2)cc1-c1ccc(Cl)cc1 | 16 (≈ 46.2 µM) | > 16 | 8 | 16 (≈ 46.2 µM) | > 1 | – | > 16 | – | – |
| Cn1cc(C(=O)O)c(-c2ccc(Cl)cc2)c1 | 16 (≈ 67.9 µM) | > 16 | – | > 16 | > 16 | – | > 16 | – | – |
